US10570184B2, “GLP-1/glucagon receptor co-agonists for medical use” (Novo Nordisk A/S, priority 2014, dated 2020)
Starred links: 1 amine or outer side, 2 acyl side, 3 side chain; linkers in the order of their positions; H or OH if unused. Non-standard residues stand in square brackets, D forms with d. Residues, ends and D or L forms follow the SMILES beside them. Groups on a side chain read outwards from the residue. *: point of attachment. C18 diacid = O=C(O)CCCCCCCCCCCCCCCCC(=O)*; γGlu = O=C(O)[C@H](CCC(=O)[*:2])N[*:1]; Ac4c = NC1(C(=O)O)CCC1; AEEA = NCCOCCOCC(=O)O; Aib = CC(C)(N)C(=O)O

Target: T1, human glucagon receptor (Homo sapiens, UniProt P47871)
T1 construct: expressed in transfected cells; host or cells: membranes of BHK cells, clone BHK hGCGR A3*25
Experiment: Assay (I)(b) glucagon receptor activation, CRE luciferase reporter gene assay in BHK cells
Type: cell-based
Settings: without presence of serum albumin; read-out: GlucagonR EC50 (pM), [Assay (I)(b)]
Procedure: The purpose of this example was to test the activity or potency, of the glucagon derivatives of the invention, in vitro. The in vitro potency is the measure of human GLP-1 receptor (GLP-1R) or glucagon receptor (glucagonR) activation, respectively, in a whole cell assay. In vitro potency was determined by measuring the response of human GLP-1 or glucagon receptor, respectively, in a reporter gene assay. The assay was performed in a stably transfected BHK cell line that expresses either the human GLP-1 receptor or the human glucagon receptor and contains the DNA for the cAMP response element (CRE) coupled to a promoter and the gene for firefly luciferase (CRE luciferase). […] When assay incubation was completed, the luciferase substrate (luciferin) was added and the enzyme converted luciferin to oxyluciferin and produces bioluminescence. The luminescence was measured as the readout for the assay. The cells used in this assay (clone pLJ6′-4-25) were BHK cells with BHK570 as a parent cell line expressing the CRE luciferase gene (clone BHK/KZ10-20-48) and were established by further transfection with the human glucagon receptor (clone pLJ6′ in pHZ-1 vector). The cells were cultured at 5% CO2 in DMEM medium with 10% FBS, 1×GlutaMAX, 1 mg/ml G418, 240 nM MTX (methotrexate) and 1% pen/strep (penicillin/streptomycin). They were aliquoted and stored in liquid nitrogen. Before each assay, an aliquot was taken up and washed three times in PBS before being suspended at the desired concentration in assay medium. For 96-well plates the suspension was made to give a final concentration of 5×10EE3 cells/well. The following chemicals were used in the assay: Pluronic F-68 (10%) (Gibco 2404), ovalbumin (Sigma A5503), DMEM w/o phenol red (Gibco 11880-028), 1 M Hepes (Gibco 15630), Glutamax 100× (Gibco 35050) and steadylite plus (PerkinElmer 6016757). Assay Medium consisted of DMEM w/o phenol red, 10 mM Hepes, 1× GlutaMAX, 2% Ovalbumin and 0.2% Pluronic F-68. Cell stocks were thawed in a 37° C. water bath. Cells were washed three times in PBS. The cells were counted and adjusted to 5×10EE3 cells/50 μl (1×10EE5 cells/ml) in Assay Medium. A 50 μl aliquot of cells was transferred to each well in the assay plate. Stocks of the test compounds and reference compounds were diluted to a concentration of […] in Assay Medium. Compounds were diluted 10-fold to give the following concentrations: 2×10EE-6 M, 2×10EE-7 M, 2×10EE-8 M; 2×10EE-9 M, 2×10EE-10 M, 2×10EE-11 M, 2×10EE-12 M and 2×10EE-13 M. For each compound a blank assay medium control was also included. A 50 μl aliquot of compound or blank was transferred from the dilution plate to the assay plate. Compounds were tested at the following final concentrations: 1×10EE-6 M, 1×10EE-7 M, 1×10EE-8 M; 1×10EE-9 M, 1×10EE-10 M, 1×10EE-11 M and 1×10EE-12 M and 1×10EE-13 M. The assay plate was incubated for 3 h in a 5% CO2 incubator at 37° C. The assay plate was removed from the incubator and allowed to stand at room temperature for 15 min. A 100 μl aliquot of steadylite plus reagent was added to each well of the assay plate (reagent is light sensitive). Each assay plate was covered with aluminum foil to protect it from light and shaken for 30 min at room temperature. Each assay plate was read in a Perkin Elmer TopCount NXT instrument. The data from the TopCount instrument was transferred to GraphPad Prism software. The software performed a non-linear regression (log(agonist) vs response-Variable slope (four parameter)). EC50 values were calculated by the software and reported in pM.

T1 sequence (P47871 26-477): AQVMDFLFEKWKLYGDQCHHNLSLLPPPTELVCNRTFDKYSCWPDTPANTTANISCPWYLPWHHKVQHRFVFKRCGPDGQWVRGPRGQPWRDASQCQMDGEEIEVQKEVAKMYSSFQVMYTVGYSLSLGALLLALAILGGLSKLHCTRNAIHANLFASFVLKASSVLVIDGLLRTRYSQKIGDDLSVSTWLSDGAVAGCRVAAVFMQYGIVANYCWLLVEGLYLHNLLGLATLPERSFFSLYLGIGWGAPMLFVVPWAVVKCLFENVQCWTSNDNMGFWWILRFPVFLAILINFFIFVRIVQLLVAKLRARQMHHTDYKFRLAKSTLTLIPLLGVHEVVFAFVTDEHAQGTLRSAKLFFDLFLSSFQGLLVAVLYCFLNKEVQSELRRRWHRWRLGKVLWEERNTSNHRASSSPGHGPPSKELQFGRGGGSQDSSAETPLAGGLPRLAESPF

| EC50 [pM] | SMILES |
| --- | --- |
| 32 | CC[C@H](C)[C@H](NC(=O)[C@H](CC(C)C)NC(=O)[C@H](Cc1c[nH]c2ccccc12)NC(=O)[C@H](CCC(N)=O)NC(=O)[C@@H](NC(=O)[C@H](Cc1ccccc1)NC(=O)[C@H](CC(=O)O)NC(=O)[C@H](CCC(N)=O)NC(=O)[C@H](C)NC(=O)[C@H](CCCNC(=N)N)NC(=O)[C@H](CCCNC(=N)N)NC(=O)[C@H](C)NC(=O)[C@H](CC(=O)O)NC(=O)[C@H](CC(C)C)NC(=O)[C@H](Cc1ccc(O)cc1)NC(=O)[C@H](CCCCN)NC(=O)[C@H](CO)NC(=O)[C@H](CC(C)C)NC(=O)[C@H](CC(=O)O)NC(=O)[C@H](CO)NC(=O)[C@@H](NC(=O)[C@H](Cc1ccccc1)NC(=O)[C@@H](NC(=O)CNC(=O)[C@H](CCC(N)=O)NC(=O)C(C)(C)NC(=O)[C@@H](N)Cc1c[nH]cn1)[C@@H](C)O)[C@@H](C)O)C(C)C)C(=O)N[C@@H](CCCCNC(=O)COCCOCCNC(=O)COCCOCCNC(=O)CC[C@H](NC(=O)CC[C@H](NC(=O)CC[C@H](NC(=O)CCCCCCCCCCCCCCCCC(=O)O)C(=O)O)C(=O)O)C(=O)O)C(=O)N[C@H](C(N)=O)[C@@H](C)O [Chem. 7, N^ε28-[2-[2-[2-[[2-[2-[2-[[(4S)-4-carboxy-4-[[(4S)-4-carboxy-4-[[(4S)-4-carboxy-4-(17-carboxyheptadecanoylamino)butanoyl]amino]butanoyl]amino]butanoyl]amino]ethoxy]ethoxy]acetyl]amino]ethoxy]ethoxy]acetyl]-[Aib2,Leu10,Ala16,Ile27,Lys28]-Glucagon amide] (H-H[Aib]QGTFTSDLSKYLDARRAQDFVQWLIK([AEEA-AEEA-γGlu-γGlu-γGlu-C18 diacid])T-NH2; N-terminus assumed) |
| 32 | CC[C@H](C)[C@H](NC(=O)[C@H](CC(C)C)NC(=O)[C@H](Cc1c[nH]c2ccccc12)NC(=O)[C@H](CCC(N)=O)NC(=O)[C@@H](NC(=O)[C@H](Cc1ccccc1)NC(=O)[C@H](CCC(=O)O)NC(=O)[C@H](CCCNC(=N)N)NC(=O)[C@H](C)NC(=O)[C@H](CCCNC(=N)N)NC(=O)[C@H](CCCNC(=N)N)NC(=O)[C@H](CO)NC(=O)[C@H](CCC(=O)O)NC(=O)[C@H](CC(C)C)NC(=O)[C@H](Cc1ccc(O)cc1)NC(=O)[C@H](CCCCN)NC(=O)[C@H](CO)NC(=O)[C@H](CC(C)C)NC(=O)[C@H](CC(=O)O)NC(=O)[C@H](CO)NC(=O)[C@@H](NC(=O)[C@H](Cc1ccccc1)NC(=O)[C@@H](NC(=O)CNC(=O)[C@H](CCC(N)=O)NC(=O)C1(NC(=O)[C@@H](N)Cc2c[nH]cn2)CCC1)[C@@H](C)O)[C@@H](C)O)C(C)C)C(=O)N[C@@H](CCCCNC(=O)COCCOCCNC(=O)COCCOCCNC(=O)CC[C@H](NC(=O)CC[C@H](NC(=O)CCCCCCCCCCCCCCCCC(=O)O)C(=O)O)C(=O)O)C(=O)N[C@H](C(N)=O)[C@@H](C)O [Chem. 18, N^ε28-[2-[2-[2-[[2-[2-[2-[[(4S)-4-carboxy-4-[[(4S)-4-carboxy-4-(17-carboxyheptadecanoylamino)butanoyl]amino]butanoyl]amino]ethoxy]ethoxy]acetyl]amino]ethoxy]ethoxy]acetyl]-[Acb2,Leu10,Glu15,Arg20,Glu21,Ile27,Lys28]-Glucagon amide] (H-H[Ac4c]QGTFTSDLSKYLESRRAREFVQWLIK([AEEA-AEEA-γGlu-γGlu-C18 diacid])T-NH2) |
| 12 | CC[C@H](C)[C@H](NC(=O)[C@H](CC(C)C)NC(=O)[C@H](Cc1c[nH]c2ccccc12)NC(=O)[C@H](CCCCNC(=O)COCCOCCNC(=O)COCCOCCNC(=O)CC[C@H](NC(=O)CC[C@H](NC(=O)CC[C@H](NC(=O)CCCCCCCCCCCCCCCCC(=O)O)C(=O)O)C(=O)O)C(=O)O)NC(=O)[C@@H](NC(=O)[C@H](Cc1ccccc1)NC(=O)[C@H](CCC(=O)O)NC(=O)[C@H](CCCNC(=N)N)NC(=O)[C@H](C)NC(=O)[C@H](CCCNC(=N)N)NC(=O)[C@H](CCCNC(=N)N)NC(=O)[C@H](C)NC(=O)[C@H](CC(=O)O)NC(=O)[C@H](CC(C)C)NC(=O)[C@H](Cc1ccc(O)cc1)NC(=O)[C@H](CCCCN)NC(=O)[C@H](CO)NC(=O)[C@H](Cc1ccc(O)cc1)NC(=O)[C@H](CC(=O)O)NC(=O)[C@H](CO)NC(=O)[C@@H](NC(=O)[C@H](Cc1ccccc1)NC(=O)[C@@H](NC(=O)CNC(=O)[C@H](CCC(N)=O)NC(=O)C(C)(C)NC(=O)[C@@H](N)Cc1c[nH]cn1)[C@@H](C)O)[C@@H](C)O)C(C)C)C(=O)N[C@@H](CO)C(=O)N[C@H](C(N)=O)[C@@H](C)O [Chem. 4, N^ε24-[2-[2-[2-[[2-[2-[2-[[(4S)-4-carboxy-4-[[(4S)-4-carboxy-4-[[(4S)-4-carboxy-4-(17-carboxyheptadecanoylamino)butanoyl]amino]butanoyl]amino]butanoyl]amino]ethoxy]ethoxy]acetyl]amino]ethoxy]ethoxy]acetyl]-[Aib2,Ala16,Arg20,Glu21,Lys24,Ile27,Ser28]-Glucagon amide] (H-H[Aib]QGTFTSDYSKYLDARRAREFVK([AEEA-AEEA-γGlu-γGlu-γGlu-C18 diacid])WLIST-NH2; N-terminus assumed) |
| 66 | CC[C@H](C)[C@H](NC(=O)[C@H](CC(C)C)NC(=O)[C@H](Cc1c[nH]c2ccccc12)NC(=O)[C@H](C)NC(=O)[C@@H](NC(=O)[C@H](Cc1ccccc1)NC(=O)[C@H](CC(=O)O)NC(=O)[C@H](CCC(N)=O)NC(=O)[C@H](C)NC(=O)[C@H](CCCNC(=N)N)NC(=O)[C@H](CCCNC(=N)N)NC(=O)[C@H](CO)NC(=O)[C@H](CCC(=O)O)NC(=O)[C@H](CC(C)C)NC(=O)[C@H](Cc1ccc(O)cc1)NC(=O)[C@H](CCCCN)NC(=O)[C@H](CO)NC(=O)[C@H](Cc1ccc(O)cc1)NC(=O)[C@H](CC(=O)O)NC(=O)[C@H](CO)NC(=O)[C@@H](NC(=O)[C@H](Cc1ccccc1)NC(=O)[C@@H](NC(=O)CNC(=O)[C@H](CCC(N)=O)NC(=O)C(C)(C)NC(=O)[C@@H](N)Cc1c[nH]cn1)[C@@H](C)O)[C@@H](C)O)C(C)C)C(=O)N[C@@H](CCCCNC(=O)CC[C@H](NC(=O)CC[C@H](NC(=O)COCCOCCNC(=O)COCCOCCNC(=O)CC[C@H](NC(=O)CCCCCCCCCCCCCCCCC(=O)O)C(=O)O)C(=O)O)C(=O)O)C(=O)N[C@H](C(N)=O)[C@@H](C)O [Chem. 34, N^ε28-[(4S)-4-carboxy-4-[[(4S)-4-carboxy-4-[[2-[2-[2-[[2-[2-[2-[[(4S)-4-carboxy-4-(17-carboxyheptadecanoylamino)butanoyl]amino]ethoxy]ethoxy]acetyl]amino]ethoxy]ethoxy]acetyl]amino]butanoyl]amino]butanoyl]-[Aib2,Glu15,Ala24,Ile27,Lys28]-Glucagon amide] (H-H[Aib]QGTFTSDYSKYLESRRAQDFVAWLIK([γGlu-γGlu-AEEA-AEEA-γGlu-C18 diacid])T-NH2) |
